{"source": "ChEMBL document CHEMBL1126639", "about": "“Centrally acting serotonergic and dopaminergic agents. 2. Synthesis and structure-activity relationships of 2,3,3a,4,9,9a-hexahydro-1H-benz[f]indole derivatives” (J Med Chem, 1993)", "key": {"Mus musculus [1]": {"tested_on": "Mus musculus", "assay": "(§1) Time of effect in the face-to-face behavioral assay in the mouse when a dose of […] is administered perorally", "format": "functional"}, "Mus musculus [2]": {"tested_on": "Mus musculus", "assay": "Time of effect in the isolation-induced aggression behavioral assay in the mouse when a dose of 36 micro mol/kg is administered perorally", "format": "functional"}, "Mus musculus [3]": {"tested_on": "Mus musculus", "assay": "Effective dose on hypothermia in mouse when administered through peroral route", "format": "functional"}, "Mus musculus [4]": {"tested_on": "Mus musculus", "assay": "Maximum decrease in temperature when compound is administered subcutaneously", "format": "functional"}, "Mus musculus [5]": {"tested_on": "Mus musculus", "assay": "Time of effect in the isolation-induced aggression behavioral assay in the mouse when a dose of 3.6 micro mol/kg is administered perorally", "format": "functional"}, "D(2) dopamine receptor": {"molecular_target": "D(2) dopamine receptor (Rattus norvegicus, UniProt P61169)", "sequence (P61169 whole entry)": "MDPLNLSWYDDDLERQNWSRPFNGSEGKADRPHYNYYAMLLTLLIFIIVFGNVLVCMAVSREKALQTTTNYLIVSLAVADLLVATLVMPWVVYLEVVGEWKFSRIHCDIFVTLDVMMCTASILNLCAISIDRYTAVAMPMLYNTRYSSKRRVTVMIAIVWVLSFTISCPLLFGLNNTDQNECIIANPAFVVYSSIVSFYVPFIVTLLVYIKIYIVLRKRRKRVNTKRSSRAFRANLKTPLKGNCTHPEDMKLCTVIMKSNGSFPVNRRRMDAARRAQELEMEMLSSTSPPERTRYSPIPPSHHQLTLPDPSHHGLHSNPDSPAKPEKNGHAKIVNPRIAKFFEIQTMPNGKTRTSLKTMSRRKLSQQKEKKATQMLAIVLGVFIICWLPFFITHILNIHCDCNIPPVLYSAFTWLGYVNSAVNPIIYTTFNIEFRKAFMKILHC", "assay": "Inhibitory concentration against [3H]raclopride-labeled dopamine receptor D2 in rat striatum", "format": "tissue-based"}, "Mus musculus [6]": {"tested_on": "Mus musculus", "assay": "as §1", "format": "functional", "remark": "listed apart in the source"}, "Mus musculus [7]": {"tested_on": "Mus musculus", "assay": "Time of effect in the isolation-induced aggression behavioral assay in the mouse when a dose of 0.0 umol/kg is administered intraperitoneally", "format": "functional"}, "Rattus norvegicus [8]": {"tested_on": "Rattus norvegicus", "assay": "Effect on the synthesis rates of dopamine (DOPA accumulation) in the rat ventral limbic brain region at 10.7 uM/kg.", "format": "functional, Limbic system"}, "Mus musculus [9]": {"tested_on": "Mus musculus", "assay": "Effective dose on hypothermia in mouse when administered subcutaneously", "format": "functional"}, "Rattus norvegicus [10]": {"tested_on": "Rattus norvegicus", "assay": "Inhibition of firing rates of dopaminergic neurons in the substantia nigra pars compacta by intravenous injection in rats", "format": "functional"}, "Mus musculus [11]": {"tested_on": "Mus musculus", "assay": "Time of effect in the face-to-face behavioral assay in the mouse when a dose of 0.4 umol/kg is administered perorally", "format": "functional"}, "Mus musculus [12]": {"tested_on": "Mus musculus", "assay": "Time of effect in the isolation-induced aggression behavioral assay in the mouse when a dose of 11 micro mol/kg is administered perorally", "format": "functional"}, "Mus musculus [13]": {"tested_on": "Mus musculus", "assay": "Time of effect in the isolation-induced aggression behavioral assay in the mouse when a dose of 36 micro mol/kg is administered intraperitoneally", "format": "functional"}, "Mus musculus [14]": {"tested_on": "Mus musculus", "assay": "Time of effect in the isolation-induced aggression behavioral assay in the mouse when a dose of 11 umol/kg is administered intraperitoneally", "format": "functional"}, "Mus musculus [15]": {"tested_on": "Mus musculus", "assay": "Time of effect in the isolation-induced aggression behavioral assay in the mouse when a dose of 0.0 micro mol/kg is administered perorally", "format": "functional"}, "Mus musculus [16]": {"tested_on": "Mus musculus", "assay": "Maximum decrease in temperature when compound is administered through peroral route", "format": "functional"}, "Rattus norvegicus [17]": {"tested_on": "Rattus norvegicus", "assay": "Effect on the synthesis rates of serotonin (5-HTP accumulation) in the rat ventral limbic brain region 10.7 umol/kg.", "format": "functional, Limbic system"}, "Mus musculus [18]": {"tested_on": "Mus musculus", "assay": "Time of effect in the isolation-induced aggression behavioral assay in the mouse when a dose of 1.1 micro mol/kg is administered perorally", "format": "functional"}, "Rattus norvegicus [19]": {"tested_on": "Rattus norvegicus", "assay": "Inhibition of firing rates of serotonergic neurons in the dorsal raphe nucleus by intravenous injection in rats", "format": "functional"}, "Mus musculus [20]": {"tested_on": "Mus musculus", "assay": "Antagonism of apomorphine for 10-20 minutes in reserpinized mice when a dose of 33 micro mol/kg is administered intraperitoneally", "format": "functional"}, "Mus musculus [21]": {"tested_on": "Mus musculus", "assay": "Antagonism of apomorphine for 0-10 minutes in reserpinized mice when a dose of 0.3 micro mol/kg is administered intraperitoneally", "format": "functional"}, "Mus musculus [22]": {"tested_on": "Mus musculus", "assay": "Antagonism of apomorphine in reserpinized mice when a dose of 33 micro mol/kg is administered intraperitoneally", "format": "functional"}, "Mus musculus [23]": {"tested_on": "Mus musculus", "assay": "Antagonism of apomorphine in reserpinized mice when a dose of 0.3 micro mol/kg is administered intraperitoneally", "format": "functional"}, "Mus musculus [24]": {"tested_on": "Mus musculus", "assay": "Antagonism of apomorphine for 10-20 minutes in reserpinized mice when a dose of 0.3 micro mol/kg is administered intraperitoneally", "format": "functional"}, "Mus musculus [25]": {"tested_on": "Mus musculus", "assay": "Ability to stimulate dopaminergic systems by effect on locomotor activity in reserpinized mice when a dose of 0.3 micro mol/kg is administered intraperitoneally", "format": "functional"}, "Mus musculus [26]": {"tested_on": "Mus musculus", "assay": "Ability to stimulate dopaminergic systems by effect on locomotor activity in reserpinized mice when a dose of 3.3 micro mol/kg is administered intraperitoneally", "format": "functional"}, "Mus musculus [27]": {"tested_on": "Mus musculus", "assay": "Ability to stimulate dopaminergic systems by effect on locomotor activity in reserpinized mice when a dose of 33 micro mol/kg is administered intraperitoneally", "format": "functional"}, "Mus musculus [28]": {"tested_on": "Mus musculus", "assay": "Antagonism of apomorphine for 0-10 minutes in reserpinized mice when a dose of 3.3 micro mol/kg is administered intraperitoneally", "format": "functional"}, "Mus musculus [29]": {"tested_on": "Mus musculus", "assay": "Antagonism of apomorphine in reserpinized mice when a dose of 3.3 micro mol/kg is administered intraperitoneally", "format": "functional"}, "Mus musculus [30]": {"tested_on": "Mus musculus", "assay": "Antagonism of apomorphine for 0-10 minutes in reserpinized mice when a dose of 33 micro mol/kg is administered intraperitoneally", "format": "functional"}, "Mus musculus [31]": {"tested_on": "Mus musculus", "assay": "Antagonism of apomorphine for 10-20 minutes in reserpinized mice when a dose of 3.3 micro mol/kg is administered intraperitoneally", "format": "functional"}, "Rattus norvegicus [32]": {"tested_on": "Rattus norvegicus", "assay": "Effect on the synthesis rates of serotonin in the rat ventral limbic brain region 2.7 micro mol/kg.", "format": "functional, Limbic system"}, "Mus musculus [33]": {"tested_on": "Mus musculus", "assay": "Ability to stimulate dopaminergic systems by effect on locomotor activity in reserpinized mice when a dose of 2.7 micro mol/kg is administered intraperitoneally", "format": "functional"}, "Mus musculus [34]": {"tested_on": "Mus musculus", "assay": "Antagonism of apomorphine for 10-20 minutes in reserpinized mice when a dose of 2.7 micro mol/kg is administered intraperitoneally", "format": "functional"}, "Mus musculus [35]": {"tested_on": "Mus musculus", "assay": "Antagonism of apomorphine for 0-10 minutes in reserpinized mice when a dose of 2.7 micro mol/kg is administered intraperitoneally", "format": "functional"}, "Rattus norvegicus [36]": {"tested_on": "Rattus norvegicus", "assay": "Effect on the synthesis rates of dopamine in the rat ventral limbic brain region at 2.7 micro mol/kg.", "format": "functional, Limbic system"}, "Mus musculus [37]": {"tested_on": "Mus musculus", "assay": "Antagonism of apomorphine in reserpinized mice when a dose of 2.7 micro mol/kg is administered intraperitoneally", "format": "functional"}}, "data": [{"smiles": "C=CCN1CC[C@@H]2Cc3c(cccc3OC)C[C@H]21", "values": [{"measurement": "Time", "setting": "Mus musculus [1]", "value": 1.5, "unit": "s"}, {"measurement": "Time", "setting": "Mus musculus [2]", "value": 397, "unit": "s"}, {"measurement": "ED50", "setting": "Mus musculus [3]", "value": 1.1, "unit": "µM/kg"}, {"measurement": "Max temperature decrease", "setting": "Mus musculus [4]", "value": 4.5}, {"measurement": "Time", "setting": "Mus musculus [5]", "value": 198, "unit": "s"}, {"measurement": "IC50", "setting": "D(2) dopamine receptor", "value": "> 1000", "unit": "nM"}, {"measurement": "Time", "setting": "Mus musculus [6]", "value": 1, "unit": "s"}, {"measurement": "Time", "setting": "Mus musculus [7]", "value": 5, "unit": "s"}, {"measurement": "Control", "setting": "Rattus norvegicus [8]", "value": -37, "unit": "%"}, {"measurement": "ED50", "setting": "Mus musculus [9]", "value": 0.6, "unit": "µM/kg"}, {"measurement": "ED50", "setting": "Rattus norvegicus [10]", "value": 0.05, "unit": "µmol/kg"}, {"measurement": "Time", "setting": "Mus musculus [11]", "value": 1.7, "unit": "s"}, {"measurement": "Time", "setting": "Mus musculus [12]", "value": 257, "unit": "s"}, {"measurement": "Time", "setting": "Mus musculus [13]", "value": 600, "unit": "s"}, {"measurement": "Time", "setting": "Mus musculus [14]", "value": 570, "unit": "s"}, {"measurement": "Time", "setting": "Mus musculus [15]", "value": 5, "unit": "s"}, {"measurement": "Max temperature decrease", "setting": "Mus musculus [16]", "value": 5.6}, {"measurement": "Control", "setting": "Rattus norvegicus [17]", "value": -41, "unit": "%"}, {"measurement": "Time", "setting": "Mus musculus [18]", "value": 109, "unit": "s"}, {"measurement": "ED50", "setting": "Rattus norvegicus [19]", "value": 0.08, "unit": "µM/kg"}]}, {"smiles": "CCCN1CCCC(c2cccc(O)c2)C1", "note": "(single isomer, unassigned; (-))", "values": [{"measurement": "Locomotor activity", "setting": "Mus musculus [20]", "value": 58}, {"measurement": "Locomotor activity", "setting": "Mus musculus [21]", "value": 127}, {"measurement": "Locomotor activity", "setting": "Mus musculus [22]", "value": 41}, {"measurement": "Locomotor activity", "setting": "Mus musculus [23]", "value": 118}, {"measurement": "Locomotor activity", "setting": "Mus musculus [24]", "value": 106}, {"measurement": "Locomotor activity", "setting": "Mus musculus [25]", "value": 31}, {"measurement": "Locomotor activity", "setting": "Mus musculus [26]", "value": 8}, {"measurement": "Locomotor activity", "setting": "Mus musculus [27]", "value": 13}, {"measurement": "Locomotor activity", "setting": "Mus musculus [28]", "value": 91}, {"measurement": "Locomotor activity", "setting": "Mus musculus [29]", "value": 106}, {"measurement": "Locomotor activity", "setting": "Mus musculus [30]", "value": 59}, {"measurement": "Locomotor activity", "setting": "Mus musculus [31]", "value": 83}]}, {"smiles": "O=C(CCCN1CCC(O)(c2ccc(Cl)cc2)CC1)c1ccc(F)cc1", "note": "[HALOPERIDOL]", "values": [{"measurement": "Control", "setting": "Rattus norvegicus [32]", "value": -6.6, "unit": "%"}, {"measurement": "Locomotor activity", "setting": "Mus musculus [21]", "value": 94}, {"measurement": "Locomotor activity", "setting": "Mus musculus [33]", "value": 1}, {"measurement": "Locomotor activity", "setting": "Mus musculus [34]", "value": 28}, {"measurement": "Locomotor activity", "setting": "Mus musculus [35]", "value": 72}, {"measurement": "Control", "setting": "Rattus norvegicus [36]", "value": 144, "unit": "%"}, {"measurement": "Locomotor activity", "setting": "Mus musculus [23]", "value": 58}, {"measurement": "Locomotor activity", "setting": "Mus musculus [24]", "value": 71}, {"measurement": "Locomotor activity", "setting": "Mus musculus [25]", "value": 9}, {"measurement": "Locomotor activity", "setting": "Mus musculus [37]", "value": 10}, {"measurement": "ED50", "setting": "Rattus norvegicus [10]", "value": 0.018, "unit": "µmol/kg"}, {"measurement": "ED50", "setting": "Rattus norvegicus [19]; Rattus norvegicus, Dorsal raphe nucleus, iv, read-out: ED50", "value": 0.019, "unit": "µmol/kg"}]}]}
